Here are results for eight compounds from PubChem BioAssay (NCI).

Where “and” joins values, the source holds several entries; their conditions need not be identical. Equal values may be shown once.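 How tested: cells in 96-well plates exposed to compound for 48 hours at five concentrations. At the GI50, growth is halved. TGI denotes the concentration required for complete inhibition of growth.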

Holding throughout (experiment): inhibition of tumour cell growth, NCI panel, 48 h
The subject of experiment [1] is A549 NSCLC.
Experiment [2] has as its system A498 renal.
The test system of experiment [3] is SF-268 CNS.
For experiment [4], the system named is COLO 205 colon.
Experiment [5] has as its system MCF7 breast.
Experiment [6] relates to CAKI-1 renal.
Experiment [7] relates to HS 578T breast.
Experiment [8] deals with SNB-19 CNS.
In experiment [9] the test system is UACC-257 melanoma.
In experiment [10] the test system is UACC-62 melanoma.

For `Cc1cc2nc3ccc(N=Nc4ccc(N(C)C)cc4)cc3n(-c3ccccc3)c-2cc1=N`, the GI50 in experiment [1] was 0.00894 µM; in [2], 0.0308 µM; in [3] it was 0.0332 µM; in experiment [4], 0.00343 µM; in [5], 0.00199 µM; in experiment [6] it was 0.0369 µM. For the same compound, the GI50 was 0.0168 µM in experiment [7]; 0.0212 µM and 0.0731 µM in experiment [8]. The TGI in experiment [1] was 0.264 µM; in experiment [2], 1.09 µM; in experiment [3] it was 0.26 µM; in experiment [4] it was 0.0216 µM; in experiment [5], 0.0143 µM; in experiment [6], 1.07 µM. In addition, the TGI in experiment [7] is 0.0816 µM; in experiment [8] it was 1.08 µM and 1.61 µM.
Take `COC(=O)C1CC2(c3ccc(C)cc3)C(c3ccc(C)cc3)=C(c3ccc(C)cc3)C1(c1ccc(C)cc1)S2=O` (stereo unspecified): the GI50 in [9] was over 100 µM; in experiment [1] it was over 100 µM; in experiment [2] it was 4.88 µM; in experiment [3], over 100 µM; in [4], over 100 µM; in experiment [10] it was over 100 µM. In addition, the GI50 is over 100 µM in experiment [5], over 100 µM in experiment [6], 48.6 µM in [7] and 36.2 µM in [8]. Further, the TGI was over 100 µM in [9]; over 100 µM in experiment [1]; 50.5 µM in experiment [2]; over 100 µM in experiment [3]; over 100 µM in experiment [4]; over 100 µM in experiment [10]. In addition, the TGI in experiment [5], in [6], in experiment [7] and in experiment [8] was over 100 µM each time.
Regarding `COc1cc(/C=C/C(=O)c2c(C)n([O-])c3cc(C)c(C)cc3[n+]2=O)cc(OC)c1OC`, the GI50 is 16.7 µM in experiment [9]; 12.1 µM in [2]; 12.5 µM in experiment [3]; 20.7 µM in [4]; 15.5 µM in experiment [10]; 9.62 µM in experiment [5]. For the same compound, the GI50 in experiment [6] is 10.8 µM; in experiment [7], 19.9 µM; in experiment [8], 16.9 µM. In addition, the TGI in experiment [9] amounted to 48.8 µM; in experiment [2], 37.7 µM; in experiment [3], 32.3 µM; in experiment [4], 67.4 µM; in [10], 37.9 µM; in [5], 25.1 µM. For the same compound, the TGI in experiment [6] amounted to 29.6 µM; in [7] it was 54.2 µM; in experiment [8], 39.9 µM.
For `Cc1cc(N(CCCNc2ccnc3cc(Cl)ccc23)Cc2cccs2)nc(Cl)n1`, the GI50 was 3.04 µM in experiment [9]; 7.11 µM in experiment [1]; 2.16 µM in experiment [2]; 10.5 µM in [3]; 2.24 µM in experiment [4]; 5.15 µM in experiment [10]. Besides, the GI50 was 3.06 µM in [5], 9.29 µM in experiment [7] and 7.58 µM in [8]. Besides, the TGI in experiment [9] came out at 11.1 µM; in [1], 23.1 µM; in experiment [2] it was 11.7 µM; in [3], 29.7 µM; in [4], 7.8 µM; in experiment [10] it was 21 µM. Also, the TGI in experiment [5] came out at 17.1 µM; in experiment [7], 41.5 µM; in experiment [8], 25.4 µM.
For `COc1ccc(-c2nnc3n(C)c(=O)c4ccccc4n23)cc1O`, the GI50 in [1] was 2.29 µM; in [2], 6.42 µM; in [3] it was 5.29 µM; in [4] it was 3.36 µM; in [10], 0.441 µM; in experiment [5], 0.13 µM. The GI50 is 1.06 µM in [6], 0.964 µM in experiment [7] and 0.862 µM in experiment [8]. Moreover, the TGI was over 100 µM in experiment [1]; 36.6 µM in experiment [2]; over 100 µM in experiment [3]; 21.1 µM in experiment [4]; 27.1 µM in [10]; over 100 µM in [5]. The TGI in [6] was over 100 µM; in [7] it was 35.9 µM; in [8], over 64.9 µM.
On to `COc1cc2c(cc1OCCCCCCNC(=O)c1cc3ccccc3[nH]1)N=CC1CCCN1C2=O` (stereo unspecified), for which the GI50 was 14.4 µM in experiment [9]; 39 µM in [1]; 26.3 µM in [2]; 6.8 µM in experiment [3]; 45.4 µM in [4]; 39.5 µM in experiment [10]. For the same compound, the GI50 in experiment [5] is 27.3 µM; in experiment [7], 30.6 µM; in experiment [8], 63.1 µM. Moreover, the TGI was 51.2 µM in experiment [9]; over 100 µM in [1]; 64.2 µM in [2]; 26 µM in [3]; over 100 µM in experiment [4]; over 100 µM in experiment [10]. Besides, the TGI in [5], in experiment [7] and in experiment [8] was over 100 µM throughout.
As to `O=C1C2C(C(=O)[N]1[Hg][c]1ccccc1)C1(Cl)C(Cl)=C(Cl)C2(Cl)C1(Cl)Cl` (stereo unspecified), the GI50 is 1.22 µM in [9]; 9.84 µM in experiment [1]; 2.45 µM in experiment [2]; 1.64 µM in [3]; 0.809 µM in experiment [4]; 1.37 µM in experiment [10]. Further, the GI50 in experiment [6] is 1.67 µM; in experiment [7], 0.771 µM; in experiment [8], 1.54 µM. Further, the TGI came to 2.52 µM in [9]; 25 µM in experiment [1]; 11.9 µM in experiment [2]; 3.71 µM in experiment [3]; 2.05 µM in experiment [4]; 2.72 µM in experiment [10]. Moreover, the results for the TGI in [6], in [7] and in [8] were 4.99 µM, over 100 µM and 2.99 µM, respectively.
Regarding `CC[C@](O)(C(=O)O)c1cc2n(c(=O)c1CO)Cc1cc3ccccc3nc1-2`, the GI50 in experiment [9] was 0.0236 µM and 0.0374 µM and 0.0873 µM; in experiment [1] it was 0.0057 µM and < 0.0178 µM; in experiment [2] it was 0.015 µM and 0.0448 µM; in experiment [4], 0.0556 µM and 0.296 µM; in [10], 0.00348 µM; in [6], under 0.0025 µM. Besides, the GI50 was 1.48 µM in experiment [7]; 0.00337 µM and 0.02 µM in experiment [8]. Besides, the TGI in [9] is 0.278 µM and 0.953 µM and 0.582 µM; in [1] it was 2.6 µM and 1.48 µM and 0.42 µM; in [2], 0.114 µM and 0.261 µM and 0.145 µM; in experiment [4] it was 0.779 µM and 2.21 µM and 3.85 µM; in experiment [10] it was 0.121 µM and 0.0422 µM and 0.0555 µM; in [5], 3.43 µM. Besides, the TGI in [7] is 25 µM and 13.7 µM.
